The source of these data is the NIST ThermoML archive (doi:10.1021/je5002494).

± gives the expanded uncertainty stated by the source.

The conditions of this data set: Liquid.
With `C/C=C/C(=O)OCC` [ethyl trans-2-butenoate], the Critical pressure is 3670.8 ± 300 kPa and the Critical temperature is listed as 593.84 ± 3.7 K.

For the molecule `CCCCC(=O)OCC` [ethyl pentanoate], the Critical pressure is listed as 2730.4 ± 300 kPa and the Critical temperature is on record as 594.02 ± 3.7 K.

For `CCOC(C)=O` [ethyl acetate], the Critical pressure is 3828.9 ± 300 kPa and the Critical temperature is 523.29 ± 3.7 K.

On to `CCCC(=O)OCC` [ethyl butanoate], for which the Critical pressure was 2891.5 ± 300 kPa and the Critical temperature came to 569.98 ± 3.7 K.

For `CCOC(=O)CC` [ethyl propanoate], the Critical pressure is listed as 3385.6 ± 300 kPa and the Critical temperature amounted to 546.28 ± 3.7 K.

As for `CCCCCCCC(=O)OCC` [ethyl octanoate], the Critical pressure came out at 2159.2 ± 300 kPa and the Critical temperature is 655.74 ± 3.7 K.

`O=C=O` [carbon dioxide]: the Critical pressure worked out at 7379.8 ± 300 kPa and the Critical temperature is recorded as 304.3 ± 3.7 K.

`CCCCCC(=O)OCC` [ethyl hexanoate]: the Critical pressure was 2531.3 ± 300 kPa and the Critical temperature came to 615.22 ± 3.7 K.

On to `CCCCCCC(=O)OCC` [ethyl heptanoate], for which the Critical pressure is 2356.9 ± 300 kPa and the Critical temperature turned out to be 635.12 ± 3.7 K.
